What was measured:
Type in all cases: in vivo
[1] = tested on: barnyardgrass (Echinochloa crus-galli); experiment: Test A postemergence
Outline: (§1)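 Each rating is a visual injury score from 0 to 100 given about 10 d after treatment, judged against untreated controls kept alongside in the greenhouse. In loam soil–sand blend, seeds got a preemergence directed soil spray, while postemergence plants were 2 to 10 cm tall at spraying.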

[2] = tested on: ragweed (common ragweed, Ambrosia elatior); experiment: Test A postemergence
Outline: as §1

[3] = tested on: wheat (Triticum aestivum); experiment: Test A postemergence
Outline: as §1

[4] = tested on: Kochia (Kochia scoparia); experiment: Test A postemergence
Outline: as §1

[5] = tested on: ryegrass, Italian (Italian ryegrass, Lolium multiflorum); experiment: Test A postemergence
Outline: as §1

[6] = tested on: giant foxtail (Setaria faberii); experiment: Test A postemergence
Outline: as §1

[7] = tested on: blackgrass (Alopecurus myosuroides); experiment: Test A postemergence
Outline: as §1

[8] = tested on: corn (Zea mays); experiment: Test A postemergence
Outline: as §1

[9] = tested on: pigweed (Amaranthus retroflexus); experiment: Test A postemergence
Outline: as §1

[10] = tested on: Galium (catchweed bedstraw, Galium aparine); experiment: Test A postemergence
Outline: as §1

[11] = tested on: barnyardgrass (Echinochloa crus-galli); experiment: Test A preemergence
Outline: as §1

[12] = tested on: ragweed (common ragweed, Ambrosia elatior); experiment: Test A preemergence
Outline: as §1

[13] = tested on: Kochia (Kochia scoparia); experiment: Test A preemergence
Outline: as §1

[14] = tested on: ryegrass, Italian (Italian ryegrass, Lolium multiflorum); experiment: Test A preemergence
Outline: as §1

[15] = tested on: giant foxtail (Setaria faberii); experiment: Test A preemergence
Outline: as §1

[16] = tested on: pigweed (Amaranthus retroflexus); experiment: Test A preemergence
[17] = tested on: barnyardgrass (Echinochloa crus-galli); experiment: Test B flooded paddy test; conditions: Flood, 250 g ai/ha; 0 to 100 scale where 0 is no effect and 100 is complete control; 13 to 15 d
Outline: (§2)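 Rating scale 0–100 (visual, vs untreated controls) after a 13–15 d greenhouse period; application to the flood layer, 3 cm above soil and maintained; plants at 2-leaf stage when treated.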

[18] = tested on: ducksalad (Heteranthera limosa); experiment: Test B flooded paddy test; conditions: Flood, 250 g ai/ha; 0 to 100 scale where 0 is no effect and 100 is complete control; 13 to 15 d
Outline: as §2

[19] = tested on: sedge, umbrella (small-flower umbrella sedge, Cyperus difformis); experiment: Test B flooded paddy test; conditions: Flood, 250 g ai/ha; 0 to 100 scale where 0 is no effect and 100 is complete control; 13 to 15 d
Outline: as §2

[20] = tested on: rice (Oryra sativa); experiment: Test B flooded paddy test; conditions: Flood, 250 g ai/ha; 0 to 100 scale where 0 is no effect and 100 is complete control; 13 to 15 d
Outline: as §2

[21] = 125 g ai/ha, postemergence, visual rating after approx. 10 d, 0 to 100 scale (0 no effect, 100 complete control)
[22] = Postemergence, 500 g ai/ha, 0 to 100 scale where 0 is no effect and 100 is complete control
[23] = 500 g ai/ha, postemergence, visual injury, 0 to 100 scale (0 no effect, 100 complete control), approx. 10 d
[24] = 125 g ai/ha, Preemergence, visual injury after approximately 10 d, 0 to 100 scale where 0 is no effect and 100 is complete control
[25] = 500 g ai/ha, preemergence, 0 to 100 scale, 0 = no effect, 100 = complete control
[26] = 125 g ai/ha, postemergence, visual injury rating on 0 to 100 scale (0 no effect, 100 complete control), approx. 10 d
[27] = Preemergence, 500 g ai/ha, visual injury approx. 10 d

CN1CC(c2cccc(F)c2)C(C(=O)Nc2cccc(F)c2F)C1=O (stereo not drawn) [Compound 632]
Plant response rating, Barnyardgrass [1, 21]: 90
Plant response rating, Barnyardgrass [1, 22]: 90
Plant response rating, Ragweed [2, 21]: 20
Plant response rating, Ragweed [2, 23]: 30
Plant response rating, Wheat [3, 21]: 30
Plant response rating, Wheat [3, 23]: 60
Plant response rating, Kochia [4, 21]: 60
Plant response rating, Kochia [4, 23]: 60
Plant response rating, Ryegrass, Italian [5, 21]: 30
Plant response rating, Ryegrass, Italian [5, 23]: 50
Plant response rating, Foxtail, Giant [6, 21]: 90
Plant response rating, Foxtail, Giant [6, 23]: 90
Plant response rating, Blackgrass [7, 21]: 50
Plant response rating, Blackgrass [7, 22]: 60
Plant response rating, Corn [8, 21]: 20
Plant response rating, Corn [8, 22]: 80
Plant response rating, Pigweed [9, 21]: 0
Plant response rating, Pigweed [9, 23]: 40
Plant response rating, Galium [10, 21]: 50
Plant response rating, Galium [10, 23]: 50
Plant response rating, Barnyardgrass [11, 24]: 90
Plant response rating, Barnyardgrass [11, 25]: 90
Plant response rating, Ragweed [12, 24]: 60
Plant response rating, Ragweed [12, 25]: 70
Plant response rating, Kochia [13, 24]: 50
Plant response rating, Kochia [13, 25]: 70
Plant response rating, Ryegrass, Italian [14, 24]: 60
Plant response rating, Ryegrass, Italian [14, 25]: 70
Plant response rating, Foxtail, Giant [15, 24]: 90
Plant response rating, Foxtail, Giant [15, 25]: 90
Plant response rating, Pigweed [16, 24]: 0
Plant response rating, Pigweed [16, 25]: 70
Plant response rating, Barnyardgrass [17]: 80
Plant response rating, Ducksalad [18]: 100
Plant response rating, Sedge, Umbrella [19]: 50
Plant response rating, Rice [20]: 30

O=C1NCC(c2c(F)cccc2F)C1C(=O)Nc1ccc(F)cc1F (racemic) [Compound 517]
Barnyardgrass plant response rating [1, 26]: 20
Plant response rating, Barnyardgrass [1, 22]: 30
Ragweed plant response rating [2, 26]: 0
Plant response rating, Ragweed [2, 22]: 0
Wheat plant response rating [3, 26]: 0
Plant response rating, Wheat [3, 22]: 0
Kochia plant response rating [4, 26]: 0
Plant response rating, Kochia [4, 22]: 0
Ryegrass, Italian plant response rating [5, 26]: 0
Plant response rating, Ryegrass, Italian [5, 22]: 0
Foxtail, Giant plant response rating [6, 26]: 0
Plant response rating, Foxtail, Giant [6, 22]: 0
Blackgrass plant response rating [7, 26]: 0
Plant response rating, Blackgrass [7, 22]: 0
Corn plant response rating [8, 26]: 0
Plant response rating, Corn [8, 22]: 0
Pigweed plant response rating [9, 26]: 0
Plant response rating, Pigweed [9, 22]: 0
Galium plant response rating [10, 26]: 0
Plant response rating, Galium [10, 22]: 0
Plant response rating, Barnyardgrass [11, 24]: 0
Barnyardgrass plant response rating (0 to 100 scale, 0 is no effect, 100 is complete control) [11, 27]: 0
Plant response rating, Ragweed [12, 24]: 0
Ragweed plant response rating (0 to 100 scale, 0 is no effect, 100 is complete control) [12, 27]: 0
Plant response rating, Kochia [13, 24]: 0
Kochia plant response rating (0 to 100 scale, 0 is no effect, 100 is complete control) [13, 27]: 0
Plant response rating, Ryegrass, Italian [14, 24]: 0
Ryegrass, Italian plant response rating (0 to 100 scale, 0 is no effect, 100 is complete control) [14, 27]: 0
Plant response rating, Foxtail, Giant [15, 24]: 0
Foxtail, Giant plant response rating (0 to 100 scale, 0 is no effect, 100 is complete control) [15, 27]: 30
Plant response rating, Pigweed [16, 24]: 0
Pigweed plant response rating (0 to 100 scale, 0 is no effect, 100 is complete control) [16, 27]: 0
Plant response rating, Barnyardgrass [17]: 0
Plant response rating, Ducksalad [18]: 0
Plant response rating, Sedge, Umbrella [19]: 0
Plant response rating, Rice [20]: 0
